Results on 19 molecules are retold here after ChEMBL document CHEMBL5360622, “Leucettinibs, a Class of DYRK/CLK Kinase Inhibitors Inspired by the Marine Sponge Natural Product Leucettamine B” (J Med Chem, 2023).

For assay [1], the target named is Glycogen synthase kinase-3 beta (Homo sapiens, UniProt P49841). In kind it is cell-based, Sf9.
Assay [2] addresses Dual specificity protein kinase CLK4 (Homo sapiens, UniProt Q9HAZ1).
Assay [3] deals with Cyclin-dependent kinase 5/CDK5 activator 1 (Homo sapiens, UniProt Q00535). In kind it is cell-based, Sf9.
Cyclin-dependent kinase 5/CDK5 activator 1, sequence (Q00535 whole entry): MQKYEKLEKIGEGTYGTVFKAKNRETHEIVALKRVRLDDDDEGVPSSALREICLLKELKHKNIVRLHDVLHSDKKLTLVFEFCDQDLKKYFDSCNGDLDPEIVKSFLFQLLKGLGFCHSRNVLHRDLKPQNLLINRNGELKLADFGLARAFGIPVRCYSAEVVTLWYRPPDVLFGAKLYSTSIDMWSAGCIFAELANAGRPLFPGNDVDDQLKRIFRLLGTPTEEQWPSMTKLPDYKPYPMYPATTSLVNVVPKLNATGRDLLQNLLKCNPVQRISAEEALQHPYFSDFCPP
Cyclin-dependent kinase 5/CDK5 activator 1, sequence (Q15078 whole entry, further chain): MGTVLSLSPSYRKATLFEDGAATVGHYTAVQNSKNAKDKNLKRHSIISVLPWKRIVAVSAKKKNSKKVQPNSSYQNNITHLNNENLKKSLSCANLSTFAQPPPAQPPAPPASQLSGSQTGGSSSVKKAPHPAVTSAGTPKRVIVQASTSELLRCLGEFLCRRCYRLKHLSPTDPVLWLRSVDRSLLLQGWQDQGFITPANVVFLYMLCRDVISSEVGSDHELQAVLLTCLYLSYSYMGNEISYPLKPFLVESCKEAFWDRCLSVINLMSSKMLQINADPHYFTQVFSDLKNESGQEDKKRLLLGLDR
Assay [4] has as its target T1, Dual specificity tyrosine-phosphorylation-regulated kinase 4 (Homo sapiens, UniProt Q9NR20).
T1 sequence (Q9NR20 whole entry): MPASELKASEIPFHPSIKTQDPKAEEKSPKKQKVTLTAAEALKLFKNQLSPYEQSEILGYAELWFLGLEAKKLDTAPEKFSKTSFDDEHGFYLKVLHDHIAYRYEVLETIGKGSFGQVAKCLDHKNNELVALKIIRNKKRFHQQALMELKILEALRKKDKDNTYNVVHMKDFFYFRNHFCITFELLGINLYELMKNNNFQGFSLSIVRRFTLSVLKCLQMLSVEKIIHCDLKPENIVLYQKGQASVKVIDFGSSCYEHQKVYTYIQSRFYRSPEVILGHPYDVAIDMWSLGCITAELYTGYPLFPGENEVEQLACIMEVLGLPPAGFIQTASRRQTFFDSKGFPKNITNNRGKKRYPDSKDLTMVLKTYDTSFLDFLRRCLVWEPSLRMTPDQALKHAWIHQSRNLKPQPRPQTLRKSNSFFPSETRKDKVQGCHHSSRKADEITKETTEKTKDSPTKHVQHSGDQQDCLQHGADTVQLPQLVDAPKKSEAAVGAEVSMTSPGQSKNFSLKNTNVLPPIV

Assay [5] concerns the target Casein kinase I isoform epsilon (Homo sapiens, UniProt P49674).
The target in assay [6] is Dual specificity protein kinase CLK3 (Homo sapiens, UniProt P49761). In kind it is cell-based, Sf9.
Dual specificity protein kinase CLK3, sequence (P49761 whole entry): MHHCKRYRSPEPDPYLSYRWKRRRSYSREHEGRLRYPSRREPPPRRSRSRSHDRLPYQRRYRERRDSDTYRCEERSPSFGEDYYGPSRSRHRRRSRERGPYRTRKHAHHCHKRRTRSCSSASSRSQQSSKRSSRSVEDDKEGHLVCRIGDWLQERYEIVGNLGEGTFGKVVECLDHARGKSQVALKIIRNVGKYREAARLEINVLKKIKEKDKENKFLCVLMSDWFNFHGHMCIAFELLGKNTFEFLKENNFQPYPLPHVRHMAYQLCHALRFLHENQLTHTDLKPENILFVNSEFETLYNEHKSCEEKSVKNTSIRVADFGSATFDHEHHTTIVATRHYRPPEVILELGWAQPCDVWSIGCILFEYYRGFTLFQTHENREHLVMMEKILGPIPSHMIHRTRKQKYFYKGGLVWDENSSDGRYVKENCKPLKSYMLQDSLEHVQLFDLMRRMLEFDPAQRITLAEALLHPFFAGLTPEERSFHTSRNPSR
Assay [7] has as its target T2, Dual specificity tyrosine-phosphorylation-regulated kinase 2 (Homo sapiens, UniProt Q92630).
T2 sequence (Q92630 whole entry): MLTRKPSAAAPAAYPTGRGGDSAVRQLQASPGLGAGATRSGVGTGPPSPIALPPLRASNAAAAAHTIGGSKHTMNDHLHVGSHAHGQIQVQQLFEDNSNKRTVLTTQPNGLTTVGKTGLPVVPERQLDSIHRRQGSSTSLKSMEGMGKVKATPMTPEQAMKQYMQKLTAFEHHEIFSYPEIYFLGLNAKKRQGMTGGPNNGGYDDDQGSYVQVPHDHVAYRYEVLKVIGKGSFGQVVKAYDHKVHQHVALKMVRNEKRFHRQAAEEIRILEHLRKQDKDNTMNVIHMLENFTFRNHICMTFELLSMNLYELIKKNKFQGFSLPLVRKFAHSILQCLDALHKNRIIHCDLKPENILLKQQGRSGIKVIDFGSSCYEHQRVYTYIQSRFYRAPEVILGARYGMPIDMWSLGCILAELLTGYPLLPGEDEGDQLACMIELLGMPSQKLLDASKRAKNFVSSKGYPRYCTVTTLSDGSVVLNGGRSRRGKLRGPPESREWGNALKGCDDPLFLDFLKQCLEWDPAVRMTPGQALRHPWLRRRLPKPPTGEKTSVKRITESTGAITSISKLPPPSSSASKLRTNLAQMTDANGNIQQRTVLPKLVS

Assay [8] deals with Dual specificity protein kinase CLK2 (Homo sapiens, UniProt P49760).
Dual specificity protein kinase CLK2, sequence (P49760 whole entry): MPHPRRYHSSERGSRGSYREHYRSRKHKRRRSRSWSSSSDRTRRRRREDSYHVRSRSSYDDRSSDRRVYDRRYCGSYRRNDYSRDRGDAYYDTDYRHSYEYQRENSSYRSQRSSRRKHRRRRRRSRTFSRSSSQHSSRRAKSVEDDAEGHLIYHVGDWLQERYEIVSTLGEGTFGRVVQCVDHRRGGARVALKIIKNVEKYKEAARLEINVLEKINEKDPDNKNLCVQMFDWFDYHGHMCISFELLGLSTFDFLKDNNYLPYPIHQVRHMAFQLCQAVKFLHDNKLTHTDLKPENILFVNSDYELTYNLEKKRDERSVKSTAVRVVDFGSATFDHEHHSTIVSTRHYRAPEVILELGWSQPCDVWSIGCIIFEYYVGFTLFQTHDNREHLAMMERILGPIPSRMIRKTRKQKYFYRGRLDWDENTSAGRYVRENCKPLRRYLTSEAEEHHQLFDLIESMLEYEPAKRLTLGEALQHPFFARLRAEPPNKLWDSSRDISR
The target of assay [9] is T3, Dual specificity tyrosine-phosphorylation-regulated kinase 3 (Homo sapiens, UniProt O43781).
T3 sequence (O43781 whole entry): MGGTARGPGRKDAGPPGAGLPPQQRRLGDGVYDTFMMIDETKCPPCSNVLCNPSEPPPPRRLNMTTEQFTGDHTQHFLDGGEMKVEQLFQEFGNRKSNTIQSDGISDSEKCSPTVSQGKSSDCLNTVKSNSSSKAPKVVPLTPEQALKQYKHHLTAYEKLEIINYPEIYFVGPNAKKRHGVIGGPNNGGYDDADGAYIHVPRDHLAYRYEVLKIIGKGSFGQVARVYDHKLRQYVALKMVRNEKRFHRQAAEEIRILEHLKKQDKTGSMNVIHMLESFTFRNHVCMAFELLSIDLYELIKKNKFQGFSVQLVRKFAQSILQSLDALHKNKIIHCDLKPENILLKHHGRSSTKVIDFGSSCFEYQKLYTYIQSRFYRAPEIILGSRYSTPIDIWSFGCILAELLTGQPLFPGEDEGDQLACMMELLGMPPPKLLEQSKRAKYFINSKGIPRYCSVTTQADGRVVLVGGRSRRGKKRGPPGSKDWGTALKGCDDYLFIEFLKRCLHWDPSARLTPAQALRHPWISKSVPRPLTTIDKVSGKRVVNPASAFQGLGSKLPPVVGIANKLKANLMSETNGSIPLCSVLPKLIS

A value given as a limit tells only on which side of the number the result lay.

Casein kinase I isoform epsilon, sequence (P49674 whole entry, canonical isoform): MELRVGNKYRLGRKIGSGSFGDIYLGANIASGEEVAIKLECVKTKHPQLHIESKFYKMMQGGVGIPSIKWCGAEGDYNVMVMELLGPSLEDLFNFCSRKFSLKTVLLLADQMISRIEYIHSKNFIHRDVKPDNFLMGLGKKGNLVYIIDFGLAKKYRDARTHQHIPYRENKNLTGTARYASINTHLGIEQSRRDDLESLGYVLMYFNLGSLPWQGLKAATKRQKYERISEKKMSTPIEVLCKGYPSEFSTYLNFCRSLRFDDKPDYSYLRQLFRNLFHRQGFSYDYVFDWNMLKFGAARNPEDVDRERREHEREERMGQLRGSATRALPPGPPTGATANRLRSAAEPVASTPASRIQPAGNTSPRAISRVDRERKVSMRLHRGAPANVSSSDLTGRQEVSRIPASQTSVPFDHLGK
Glycogen synthase kinase-3 beta, sequence (P49841 whole entry): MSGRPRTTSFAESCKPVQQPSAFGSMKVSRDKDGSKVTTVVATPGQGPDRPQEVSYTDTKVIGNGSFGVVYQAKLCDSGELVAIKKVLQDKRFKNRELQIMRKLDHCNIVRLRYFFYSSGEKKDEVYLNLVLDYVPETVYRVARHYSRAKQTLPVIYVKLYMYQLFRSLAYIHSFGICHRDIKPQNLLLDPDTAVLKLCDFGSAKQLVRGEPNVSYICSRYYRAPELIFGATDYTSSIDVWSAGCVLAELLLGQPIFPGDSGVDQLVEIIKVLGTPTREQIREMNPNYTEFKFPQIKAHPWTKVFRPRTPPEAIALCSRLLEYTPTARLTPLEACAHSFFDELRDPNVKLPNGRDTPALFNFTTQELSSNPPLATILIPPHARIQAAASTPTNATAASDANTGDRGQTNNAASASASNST
Dual specificity protein kinase CLK4, sequence (Q9HAZ1 whole entry): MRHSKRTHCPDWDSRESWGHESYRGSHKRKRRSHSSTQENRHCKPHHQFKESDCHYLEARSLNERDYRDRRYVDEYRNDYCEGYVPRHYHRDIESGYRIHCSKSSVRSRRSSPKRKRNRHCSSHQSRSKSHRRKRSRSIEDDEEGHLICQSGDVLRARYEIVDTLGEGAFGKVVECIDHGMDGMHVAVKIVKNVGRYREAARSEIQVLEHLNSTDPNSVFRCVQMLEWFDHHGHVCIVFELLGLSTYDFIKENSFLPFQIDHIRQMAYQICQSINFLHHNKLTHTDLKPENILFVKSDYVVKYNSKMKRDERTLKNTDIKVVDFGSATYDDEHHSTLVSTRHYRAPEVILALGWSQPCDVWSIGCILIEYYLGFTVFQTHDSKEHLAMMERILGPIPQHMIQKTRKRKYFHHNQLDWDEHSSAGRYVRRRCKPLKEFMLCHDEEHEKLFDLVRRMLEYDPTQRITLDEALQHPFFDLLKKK

The term IC50 denotes the point on the concentration scale where inhibition reaches its midpoint. As to `O=C1NC(N[C@H]2c3ccccc3C[C@@H]2O)=N/C1=C\c1ccc2ncsc2c1`, the IC50 is 429 nM in [1]; 3 nM in assay [2]; greater than 10000 nM in assay [3]; 2040 nM in assay [4]; greater than 10000 nM in assay [5]; 713 nM in [6]. The molecule also gave an IC50 in assay [7] of 1540 nM.

On to `CC1(C)CCC(NC2=N/C(=C\c3ccc4ncsc4c3)C(=O)N2)CO1` (racemic), for which the IC50 in [8] is 102 nM; in assay [1], 4750 nM; in assay [3] it was greater than 10000 nM; in assay [4], 574 nM; in assay [9] it was 692 nM; in assay [5], greater than 10000 nM. For the same molecule, the IC50 in [6] was found to be 357 nM; in [7], 260 nM.

Take `O=C1NC(N[C@H]2C3CC4CC2C[C@](O)(C4)C3)=N/C1=C\c1ccc2ncsc2c1`: the IC50 is 11 nM in [8]; 5370 nM in assay [1]; 2300 nM in [3]; 321 nM in assay [4]; 122 nM in assay [9]; 9800 nM in assay [5]. Besides, the results for the IC50 in [6] and in assay [7] were 626 nM and 296 nM, respectively.

On to `O=C1NC(NCc2ccncc2)=N/C1=C\c1ccc2ncsc2c1`, for which the IC50 in assay [8] was 109 nM; in [1], 3260 nM; in assay [3], greater than 10000 nM; in assay [4], 1240 nM; in [9], 1030 nM; in [5], greater than 10000 nM. Further, the IC50 in assay [6] was found to be 1230 nM; in [7], 613 nM.

Consider `O=C1NC(NC2CCCCOC2)=N/C1=C\c1ccc2ncsc2c1` (racemic), for which the IC50 is 51 nM in [8]; 2770 nM in assay [1]; 3890 nM in [3]; 383 nM in assay [4]; 495 nM in [9]; greater than 10000 nM in assay [5]. In addition, the IC50 amounted to 428 nM in assay [6] and 704 nM in assay [7].

For `O=C1NC(N[C@@H]2CCCOC2)=N/C1=C\c1ccc2ncsc2c1`, the IC50 in [8] is 236 nM; in assay [1] it was 9200 nM; in [3], greater than 10000 nM; in assay [4] it was 1850 nM; in assay [9], 1640 nM; in [5] it was greater than 10000 nM. The IC50 in [6] came out at 604 nM; in assay [7], 1180 nM.

Turning to `CC1(NC2=N/C(=C\c3ccc4ncsc4c3)C(=O)N2)CCNC1=O` (racemic), the IC50 is 56 nM in assay [8]; 6280 nM in assay [1]; greater than 10000 nM in assay [3]; 591 nM in assay [4]; 592 nM in assay [9]; greater than 10000 nM in assay [5]. Further, the IC50 in [6] is 532 nM; in assay [7], 189 nM.

With `COC(CNC1=N/C(=C\c2ccc3ncsc3c2)C(=O)N1)c1ccccc1` (racemic), the IC50 in [8] is 148 nM; in [1], 4310 nM; in [3] it was greater than 10000 nM; in assay [4], 1560 nM; in assay [9], 1510 nM; in assay [5], greater than 10000 nM. The IC50 in assay [6] was 270 nM; in assay [7], 352 nM.

With `O=C1NC(NCC(O)Cc2ccccc2)=N/C1=C\c1ccc2ncsc2c1` (racemic), the IC50 in assay [8] was 89 nM; in assay [1] it was 4810 nM; in assay [3], greater than 10000 nM; in assay [4], 288 nM; in assay [9], 1170 nM; in assay [5], greater than 10000 nM. The IC50 is 472 nM in assay [6] and 527 nM in assay [7].

As for `O=C1NC(NCC(O)C2CCCCC2)=N/C1=C\c1ccc2ncsc2c1` (racemic), the IC50 was 46 nM in [8]; 3080 nM in assay [1]; greater than 10000 nM in assay [3]; 319 nM in assay [4]; 357 nM in [9]; 6930 nM in assay [5]. Moreover, the IC50 in assay [6] stood at 299 nM; in assay [7], 1090 nM.

`O=C1NC(NC2CCCC(F)(F)C2)=N/C1=C\c1ccc2ncsc2c1` (racemic): the IC50 came to 24 nM in [8]; 5690 nM in assay [1]; 2380 nM in assay [3]; 321 nM in assay [4]; 296 nM in [9]; 8460 nM in assay [5]. Further, the IC50 worked out at 175 nM in assay [6] and 391 nM in assay [7].

Turning to `O=C1NC(N[C@H]2CCCOC2)=N/C1=C\c1ccc2ncsc2c1`, the IC50 was 162 nM in assay [8]; greater than 10000 nM in assay [1]; 5900 nM in assay [3]; 570 nM in assay [4]; 611 nM in assay [9]; greater than 10000 nM in assay [5]. Moreover, the 50% inhibitory concentration (IC50) in [6] was 119 nM; in assay [7], 109 nM.

On to `O=C1NC(NC2CCC(F)(F)C2)=N/C1=C\c1ccc2ncsc2c1` (racemic), for which the IC50 was 39 nM in assay [8]; 4690 nM in assay [1]; 5500 nM in [3]; 326 nM in assay [4]; 299 nM in assay [9]; greater than 10000 nM in assay [5]. The IC50 in assay [6] came to 173 nM; in assay [7], 389 nM.

In the case of `O=C1NC(NC2CCCSC2)=N/C1=C\c1ccc2ncsc2c1` (racemic), the IC50 in assay [8] is 37 nM; in assay [1] it was 7220 nM; in assay [3] it was 2490 nM; in assay [4], 246 nM; in assay [9], 335 nM; in assay [5], greater than 10000 nM. Moreover, the IC50 in [6] worked out at 107 nM; in assay [7], 124 nM.

Consider `O=C1NC(NC(CF)c2ccccc2)=N/C1=C\c1ccc2ncsc2c1` (racemic), for which the IC50 in [8] is 13 nM; in assay [1] it was 947 nM; in assay [3], greater than 10000 nM; in assay [4], 459 nM; in [9], 477 nM; in [5], greater than 10000 nM. Moreover, the IC50 turned out to be 293 nM in [6] and 530 nM in assay [7].

In the case of `CN1CCN(c2cnc(NC3=N/C(=C\c4ccc5ncsc5c4)C(=O)N3)nc2)CC1`, the IC50 in assay [8] is 997 nM; in assay [1], greater than 10000 nM; in [3], greater than 10000 nM; in assay [4] it was greater than 10000 nM; in assay [9], 450 nM; in assay [5], greater than 10000 nM. Besides, the IC50 in assay [6] was 5100 nM; in assay [7] it was 7480 nM.

Take `O=C1NC(NC(CO)C2CCCCC2)=N/C1=C\c1ccc2ncsc2c1` (racemic): the IC50 in [8] is 80 nM; in [1] it was 4160 nM; in assay [3] it was greater than 10000 nM; in [4], 410 nM; in assay [9], 695 nM; in assay [5] it was greater than 10000 nM. Further, the IC50 in assay [6] turned out to be 1090 nM; in assay [7], 1380 nM.

As to `O=C1NC(Nc2ccccc2)=N/C1=C\c1ccc2c(c1)OCO2`, the IC50 in [1] is 600 nM; in [2] it was 23 nM; in assay [6], 1200 nM.

As for `O=C1NC(NCCCn2ccnc2)=N/C1=C\c1ccc2ncsc2c1`, the IC50 in assay [1] is 6190 nM; in assay [2] it was 12 nM; in assay [3], greater than 10000 nM; in assay [5], greater than 10000 nM; in assay [6], 1790 nM; in [7], 592 nM.
